Measurements: ChEMBL document CHEMBL3271937, “Isoquinolines. 6. Potential central nervous system antitumor agents. Nitrogen mustards of 3-amino-4-(p-aminophenyl)isoquinoline” (J Med Chem, 1977)
Active and inactive are the calls of the source. The rule behind the calls is not given here.

Tests used:
[1] = system: L1210; experiment: Antitumor activity against mouse L1210 cells allografted in mouse assessed as tumor growth inhibition at 400 mg/kg, ip; format: functional, organism-based; set-up: dose 400 mg/kg
[2] = system: Mus musculus; experiment: Toxicity in mouse allografted with mouse L1210 cells at 25 to 400 mg/kg, ip; format: organism-based; set-up: dose 25-400 mg/kg, route intraperitoneal; conditions: in vivo
[3] = Octanol-water partition coefficient, log P of the compound; format: physicochemical
[4] = system: Mus musculus; experiment: Toxicity in mouse allografted with mouse L1210 cells at 200 mg/kg, ip; format: organism-based; set-up: dose 200 mg/kg, route intraperitoneal; conditions: in vivo

Structure (SMILES)	TGI [1]	Activity [2]	logP [3]	Activity [4]
CC(=O)Nc1nc(Br)c2ccccc2c1-c1ccc(N(CCCl)CCCl)cc1.Cl	inactive	Non-toxic	–	–
Nc1ncc2ccccc2c1-c1ccc(NC(=O)CN(CCCl)CCCl)cc1	inactive	Non-toxic	–	–
CCNc1ncc2ccccc2c1-c1ccc(NC(=O)CCN(CCCl)CCCl)cc1.Cl	inactive	–	7.43	Toxic
CC(=O)Nc1ncc2ccccc2c1-c1ccc(N(CCCl)CCCl)cc1	inactive	Non-toxic	–	–
CC(=O)Nc1ncc2ccccc2c1-c1ccc(NC(=O)CCN(CCCl)CCCl)cc1	inactive	Non-toxic	–	–
CC(=O)Nc1ncc2ccccc2c1-c1ccc(NC(=O)CN(CCCl)CCCl)cc1	inactive	Non-toxic	3.87	–
Nc1ccc(-c2c(N)ncc3ccccc23)cc1	–	–	2.58	–
